We go through twelve compounds from US20080248511A1, “METHODS TO QUENCH LIGHT FROM OPTICAL REACTIONS” (priority 2007, published 2008).

The target of one test is T1, Renilla luciferase (Renilla reniformis, UniProt P27652).
T1 sequence (P27652 1-311): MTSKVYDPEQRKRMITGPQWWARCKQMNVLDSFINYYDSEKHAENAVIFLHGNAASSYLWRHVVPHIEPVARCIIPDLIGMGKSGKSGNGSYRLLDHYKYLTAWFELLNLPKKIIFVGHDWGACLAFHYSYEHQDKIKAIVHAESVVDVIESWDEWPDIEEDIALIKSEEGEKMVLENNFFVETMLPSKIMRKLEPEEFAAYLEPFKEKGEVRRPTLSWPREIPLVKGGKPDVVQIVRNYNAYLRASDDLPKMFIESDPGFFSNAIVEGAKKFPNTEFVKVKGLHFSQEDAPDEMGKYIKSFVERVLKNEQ
Briefly: Non-detergent compound screen, Renilla luciferase (Example 6). The test is classed as biochemical. Conditions: for remaining activity at 23 µM / remaining activity at 153 µM / remaining activity at 1000 µM / remaining activity at 10 µM / remaining activity at 100 µM: 0.5% Tergitol NP-9, 0.03% BDDABr, read-out: Retained Renilla Luciferase Value (%). Here is the method:
(§1) Each compound was diluted into 200 mM MOPS pH 6.7, 4 μM MgSO4, 1 mM CDTA, 0.5% Tergitol NP-9, 0.05% Mazu-DF-204, 0.03% BDDABr, 30 mM thiourea, 1 mM bis-(2-mercaptoethylsulfone) (BMS), 4 μM CoA, and 1 μM 5-fluoroluciferin. Just prior to the luciferase reaction, 0.1% Prionex® (Pentapharm) and 2.9 μM coelenterazine-h (Promega) were added to each solution.
(§2) The firefly luciferase and Renilla luciferase enzymes were diluted as described in Examples 3 and 5. The luciferase reactions were initiated by adding 50 μl of the firefly luciferase and Renilla luciferase enzyme solution to 50 μl of reagent solution. The reactions were performed as described above. The retained Renilla and firefly luciferase-mediated luminescence and selectivity values for each inhibitor tested are listed in Table 6.

A further test has as its target firefly luciferase (Photinus pyralis, UniProt P08659). Briefly: Non-detergent compound screen, firefly luciferase (Example 6). The note with it: 0.5% Tergitol NP-9, 0.03% BDDABr, read-out: Retained Firefly Luciferase Value (%); for remaining activity at 23 µM: inhibitor 23 μM; for remaining activity at 153 µM: inhibitor 153 μM; for remaining activity at 1000 µM: inhibitor 1000 μM; for remaining activity at 10 µM: inhibitor 10 μM; for remaining activity at 100 µM: inhibitor 100 μM. The test is classed as biochemical. Here is the method: as §1, §2

firefly luciferase, sequence (P08659 whole entry): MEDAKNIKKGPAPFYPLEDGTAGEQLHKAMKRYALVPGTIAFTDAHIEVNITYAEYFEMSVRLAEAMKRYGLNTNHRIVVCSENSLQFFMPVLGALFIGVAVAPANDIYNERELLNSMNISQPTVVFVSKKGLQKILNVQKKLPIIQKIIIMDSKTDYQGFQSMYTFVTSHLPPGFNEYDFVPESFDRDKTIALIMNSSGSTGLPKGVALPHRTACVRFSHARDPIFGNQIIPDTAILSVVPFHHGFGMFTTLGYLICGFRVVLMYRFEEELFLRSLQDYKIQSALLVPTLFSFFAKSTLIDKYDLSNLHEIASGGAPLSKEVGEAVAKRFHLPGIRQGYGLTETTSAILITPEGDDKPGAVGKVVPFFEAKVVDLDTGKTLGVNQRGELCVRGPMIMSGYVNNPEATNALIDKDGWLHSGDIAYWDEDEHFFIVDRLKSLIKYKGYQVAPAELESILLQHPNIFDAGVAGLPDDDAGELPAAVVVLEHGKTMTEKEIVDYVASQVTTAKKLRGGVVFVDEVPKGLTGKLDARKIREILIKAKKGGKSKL

As for `COc1ccc(CNC(=O)COc2ccc3[nH]cc(CCN(C)C)c3c2)cc1` [Compound 3031, 2-(3-(2-(dimethylamino)ethyl)-1H-indol-5-yloxy)-N-(4-methoxybenzyl)acetamide], on Renilla luciferase, the “inhibitor of Renilla luciferase, grade in words” value (shortened to “inhibitor of Renilla luciferase”) is on record as “suitable inhibitors of Renilla luciferase”. In addition, on Renilla luciferase (inhibitor 23 μM), the “Selectivity Value” came out at 1 and the remaining activity at 23 µM was 96%. Besides, on Renilla luciferase (inhibitor 153 μM), the “Selectivity Value” is 0.99 and the remaining activity at 153 µM was 90%. At Renilla luciferase (inhibitor 1000 μM), the “Selectivity Value” is reported as 1.4 and the remaining activity at 1000 µM came to 66.5%. Besides, at firefly luciferase, the remaining activity at 23 µM was determined as 96%, the remaining activity at 153 µM is 89% and the remaining activity at 1000 µM worked out at 89%.

As to `CN(C)CCc1c[nH]c2ccc(/C=C/C(=O)NCc3ccc(N(C)C)cc3)cc12` [Compound 3043, (E)-N-(4-(dimethylamino)benzyl)-3-(3-(2-(dimethylamino)ethyl)-1H-indol-5-yl)acrylamide], the “inhibitor of Renilla luciferase” value at Renilla luciferase was “excellent inhibitors of Renilla luciferase”.

Turning to `COc1ccc(CNC(=O)/C(C#N)=C/c2ccc3[nH]cc(CCN(C)C)c3c2)cc1` [Compound 3044, (E)-2-cyano-3-(3-(2-(dimethylamino)ethyl)-1H-indol-5-yl)-N-(4-methoxybenzyl)acrylamide], the “inhibitor of Renilla luciferase” value at Renilla luciferase is listed as “inhibitors of Renilla luciferase”. Further, on Renilla luciferase (inhibitor 10 μM), the “Selectivity Value” was 1.2 and the remaining activity at 10 µM came to 85%. On Renilla luciferase (inhibitor 100 μM), the “Selectivity Value” came to 2.8 and the remaining activity at 100 µM turned out to be 36%. In addition, on Renilla luciferase (inhibitor 1000 μM), the “Selectivity Value” was 18.9 and the remaining activity at 1000 µM was determined as 7.6%. On firefly luciferase, the remaining activity at 10 µM was found to be 99%, the remaining activity at 100 µM was 100% and the remaining activity at 1000 µM came out at 132%.

As to `COc1ccc(COC(=O)/C=C/c2ccc3[nH]cc(CCN(C)C)c3c2)cc1` [Compound 3045, (E)-4-methoxybenzyl 3-(3-(2-(dimethylamino)ethyl)-1H-indol-5-yl)acrylate], the “inhibitor of Renilla luciferase” value against Renilla luciferase is listed as “suitable inhibitors of Renilla luciferase”. On Renilla luciferase (inhibitor 23 μM), the “Selectivity Value” is 1.0 and the remaining activity at 23 µM was found to be 97%. On Renilla luciferase (inhibitor 153 μM), the “Selectivity Value” amounted to 1.0 and the remaining activity at 153 µM came out at 98%. At Renilla luciferase (inhibitor 1000 μM), the “Selectivity Value” is reported as 1.3 and the remaining activity at 1000 µM came out at 74.7%. On firefly luciferase, the remaining activity at 23 µM was 100%, the remaining activity at 153 µM worked out at 100% and the remaining activity at 1000 µM came to 98%.

As to `COc1ccc(CNC(=O)/C=C/c2ccc3ncccc3c2)cc1` [Compound 3046, (E)-N-(4-methoxybenzyl)-3-(quinolin-6-yl)acrylamide], the “inhibitor of Renilla luciferase” value at Renilla luciferase is on record as “inhibitors of Renilla luciferase”. Moreover, at Renilla luciferase (inhibitor 10 μM), the “Selectivity Value” came to 1.0 and the remaining activity at 10 µM is 96%. Further, at Renilla luciferase (inhibitor 100 μM), the “Selectivity Value” is reported as 1.3 and the remaining activity at 100 µM was 78%. Also, on Renilla luciferase (inhibitor 1000 μM), the “Selectivity Value” is on record as 3.4 and the remaining activity at 1000 µM turned out to be 24.5%. Also, on firefly luciferase, the remaining activity at 10 µM is 100%, the remaining activity at 100 µM stood at 99% and the remaining activity at 1000 µM turned out to be 83%.

Regarding `COc1ccc(CNC(=O)/C=C/c2ccc3c(c2)c(CCN(C)C)cn3C)cc1` [Compound 3049, (E)-3-(3-(2-(dimethylamino)ethyl)-1-methyl-1H-indol-5-yl)-N-(4-methoxybenzyl)acrylamide], the “inhibitor of Renilla luciferase” value at Renilla luciferase is listed as “excellent inhibitors of Renilla luciferase”.

As for `CCCCCCNC(=O)/C=C/c1ccc2[nH]cc(CCN(C)C)c2c1` [Compound 3050, (E)-3-(3-(2-(dimethylamino)ethyl)-1H-indol-5-yl)-N-hexylacrylamide], the “inhibitor of Renilla luciferase” value at Renilla luciferase is “suitable inhibitors of Renilla luciferase”. The “Selectivity Value” at Renilla luciferase (inhibitor 23 μM) is 1.1; at Renilla luciferase (inhibitor 153 μM), 1.0; on Renilla luciferase (inhibitor 1000 μM), 1.9. The figures for the remaining activity at 23 µM on Renilla luciferase (inhibitor 23 μM) and at firefly luciferase were 93% and 102%, respectively. For the same compound, the remaining activity at 153 µM on Renilla luciferase (inhibitor 153 μM) amounted to 99%; at firefly luciferase, 102%. Moreover, the remaining activity at 1000 µM at Renilla luciferase (inhibitor 1000 μM) amounted to 55%; on firefly luciferase, 102%.

Take `COc1ccc(CNC(=O)/C=C/c2ccc3[nH]cc(CCN(C)C)c3c2)c(OC)c1` [Compound 3051, (E)-N-(2,4-dimethoxybenzyl)-3-(3-(2-(dimethylamino)ethyl)-1H-indol-5-yl)acrylamide]: at Renilla luciferase, the “inhibitor of Renilla luciferase” value is “excellent inhibitors of Renilla luciferase”. Besides, the “Selectivity Value” worked out at 1.9 at Renilla luciferase (inhibitor 10 μM), 7.3 at Renilla luciferase (inhibitor 100 μM) and 53.7 on Renilla luciferase (inhibitor 1000 μM). Further, the remaining activity at 10 µM at Renilla luciferase (inhibitor 10 μM) was found to be 55%; at firefly luciferase, 102%. Also, the remaining activity at 100 µM amounted to 14% on Renilla luciferase (inhibitor 100 μM) and 102% at firefly luciferase. For the same compound, the remaining activity at 1000 µM is 1.9% on Renilla luciferase (inhibitor 1000 μM) and 102% on firefly luciferase.

With `C=C(C(=O)NCc1ccc(OC)cc1)c1ccc2ncccc2c1` [Compound 3053, N-(4-methoxybenzyl)-2-(quinolin-6-yl)acrylamide], the “inhibitor of Renilla luciferase” value against Renilla luciferase is recorded as “suitable inhibitors of Renilla luciferase”. Further, at Renilla luciferase (inhibitor 23 μM), the “Selectivity Value” is 1.1 and the remaining activity at 23 µM was 95%. Besides, at Renilla luciferase (inhibitor 153 μM), the “Selectivity Value” was 1.1 and the remaining activity at 153 µM turned out to be 90%. In addition, on Renilla luciferase (inhibitor 1000 μM), the “Selectivity Value” was 1.1 and the remaining activity at 1000 µM is 84.7%. Besides, at firefly luciferase, the remaining activity at 23 µM stood at 100%, the remaining activity at 153 µM was 97% and the remaining activity at 1000 µM was determined as 91%.

`C=C(C(=O)NCc1ccc(OC)cc1)c1ccc2[nH]ccc2c1` [Compound 3054, 2-(1H-indol-5-yl)-N-(4-methoxybenzyl)acrylamide]: the “inhibitor of Renilla luciferase” value on Renilla luciferase was “suitable inhibitors of Renilla luciferase”. Moreover, at Renilla luciferase (inhibitor 23 μM), the “Selectivity Value” is given as 1.1 and the remaining activity at 23 µM worked out at 95%. For the same compound, at Renilla luciferase (inhibitor 153 μM), the “Selectivity Value” worked out at 1.1 and the remaining activity at 153 µM was found to be 95%. For the same compound, on Renilla luciferase (inhibitor 1000 μM), the “Selectivity Value” is given as 1.1 and the remaining activity at 1000 µM came out at 93.3%. Besides, on firefly luciferase, the remaining activity at 23 µM was 101%, the remaining activity at 153 µM stood at 102% and the remaining activity at 1000 µM was found to be 101%.

`COc1ccc(CNC(=O)/C=C/c2ccc3c(c2)c(CCN(C)C)cn3Cc2ccccc2)cc1` [Compound 3055, (E)-3-(1-benzyl-3-(2-(dimethylamino)ethyl)-1H-indol-5-yl)-N-(4-methoxybenzyl)acrylamide]: the “inhibitor of Renilla luciferase” value against Renilla luciferase is on record as “inhibitors of Renilla luciferase”. For the same compound, at Renilla luciferase (inhibitor 10 μM), the “Selectivity Value” was determined as 1.2 and the remaining activity at 10 µM came to 85%. In addition, at Renilla luciferase (inhibitor 100 μM), the “Selectivity Value” amounted to 2.2 and the remaining activity at 100 µM is 44%. Moreover, at Renilla luciferase (inhibitor 1000 μM), the “Selectivity Value” came to 5.0 and the remaining activity at 1000 µM was 20%. In addition, on firefly luciferase, the remaining activity at 10 µM worked out at 100%, the remaining activity at 100 µM stood at 98% and the remaining activity at 1000 µM came to 99%.

On to `COc1ccc(CNC(=O)/C=C/c2ccc3[nH]ccc3c2)cc1` [Compound 3056, (E)-3-(1H-indol-5-yl)-N-(4-methoxybenzyl)acrylamide], for which the “inhibitor of Renilla luciferase” value against Renilla luciferase is “inhibitors of Renilla luciferase”. For the same compound, the figures for the “Selectivity Value” at Renilla luciferase (inhibitor 10 μM), at Renilla luciferase (inhibitor 100 μM) and at Renilla luciferase (inhibitor 1000 μM) were 1.1, 1.3 and 2.7, respectively. The remaining activity at 10 µM is 93% on Renilla luciferase (inhibitor 10 μM) and 101% on firefly luciferase. Further, the remaining activity at 100 µM on Renilla luciferase (inhibitor 100 μM) worked out at 79%; at firefly luciferase it was 100%. Besides, the remaining activity at 1000 µM stood at 32.6% on Renilla luciferase (inhibitor 1000 μM) and 89% on firefly luciferase.
